Measurements as given in PubChem BioAssay AID1259407 (Chemical Carcinogenesis Research Information System (CCRIS), 2018).
Active and inactive are the calls of the source. How the calls were made is not given here.

Test system: CCRIS mutagenicity, Ames/micronucleus/aberration tests
Test: CCRIS mutagenicity studies
Conditions: Test System: AMES SALMONELLA TYPHIMURIUM
[1] = Strain/Indicator: TA98, Metabolic Activation: NONE, Method: PREINCUBATION
[2] = Strain/Indicator: TA97, Metabolic Activation: NONE, Method: STANDARD PLATE
[3] = Strain/Indicator: TA98, Metabolic Activation: NONE, Method: STANDARD PLATE
[4] = Strain/Indicator: TA98, Metabolic Activation: RAT, LIVER, S-9, AROCLOR 1254, Method: STANDARD PLATE
[5] = Strain/Indicator: TA100, Metabolic Activation: NONE, Method: STANDARD PLATE
[6] = Strain/Indicator: TA100, Metabolic Activation: RAT, LIVER, S-9, AROCLOR 1254, Method: STANDARD PLATE
[7] = Strain/Indicator: TA102, Metabolic Activation: NONE, Method: STANDARD PLATE

| SMILES | mutagenic call [1] | mutagenic call [2] | mutagenic call [3] | mutagenic call [4] | mutagenic call [5] | mutagenic call [6] | mutagenic call [7] | further results |
| --- | --- | --- | --- | --- | --- | --- | --- | --- |
| O=[N+]([O-])c1ccc2nc3ccc([N+](=O)[O-])cc3nc2c1 | active; positive |  |  |  |  |  |  | mutagenic call (Strain/Indicator: TA98(NR), Metabolic Activation: NONE, Method: PREINCUBATION): active; positive |
| O=C(O)COc1ccc(Cl)cc1 |  | inactive; negative | inactive; negative | inactive; negative | inactive; negative | inactive; negative | inactive; negative | mutagenic call (Strain/Indicator: TA97, Metabolic Activation: RAT, LIVER, S-9, AROCLOR 1254, Method: STANDARD PLATE): inactive; negative; mutagenic call (Strain/Indicator: TA102, Metabolic Activation: RAT, LIVER, S-9, AROCLOR 1254, Method: STANDARD PLATE): inactive; negative |
| Cc1ccc(C)c2c1ccc1ccccc12 |  |  | inactive; negative | active; positive | inactive; negative | active; positive |  |  |
| CC(C)CCC[C@@H](C)[C@H]1CC[C@H]2[C@@H]3C(=O)C=C4C[C@@H](O)CC[C@]4(C)[C@H]3CC[C@]12C |  | inactive; negative | inactive; negative |  | inactive; negative |  | inactive; negative | mutagenic call (Strain/Indicator: TA1535, Metabolic Activation: NONE, Method: STANDARD PLATE): inactive; negative |
| OCCBr | inactive; negative |  | inactive; negative | inactive; negative | active; positive | active; positive |  | mutagenic call (Strain/Indicator: TA97, Metabolic Activation: HAMSTER, LIVER, S-9, AROCLOR 1254 (10%), Method: PREINCUBATION): inactive; negative; mutagenic call (Strain/Indicator: TA97, Metabolic Activation: NONE, Method: PREINCUBATION): inactive; negative; mutagenic call (Strain/Indicator: TA97, Metabolic Activation: RAT, LIVER, S-9, AROCLOR 1254 (10%), Method: PREINCUBATION): inactive; negative; mutagenic call (Strain/Indicator: TA98, Metabolic Activation: HAMSTER, LIVER, S-9, AROCLOR 1254 (10%), Method: PREINCUBATION): inactive; negative; mutagenic call (Strain/Indicator: TA98, Metabolic Activation: RAT, LIVER, S-9, AROCLOR 1254 (10%), Method: PREINCUBATION): inactive; negative; mutagenic call (Strain/Indicator: TA100, Metabolic Activation: HAMSTER, LIVER, S-9, AROCLOR 1254 (10%), Method: PREINCUBATION): active; positive; mutagenic call (Strain/Indicator: TA100, Metabolic Activation: NONE, Method: PREINCUBATION): active; positive; mutagenic call (Strain/Indicator: TA100, Metabolic Activation: RAT, LIVER, S-9, AROCLOR 1254 (10%), Method: PREINCUBATION): active; positive; mutagenic call (Strain/Indicator: TA1535, Metabolic Activation: HAMSTER, LIVER, S-9, AROCLOR 1254 (10%), Method: PREINCUBATION): active; positive; mutagenic call (Strain/Indicator: TA1535, Metabolic Activation: NONE, Method: PREINCUBATION): active; positive; mutagenic call (Strain/Indicator: TA1535, Metabolic Activation: RAT, LIVER, S-9, AROCLOR 1254 (10%), Method: PREINCUBATION): active; positive |
